# Earlier results in patent US5612056A, “Transdermal formulations” (priority 1991, dated 1997).
# Assays:
# blood cholinesterase = details: human, in vivo, iv
# [1] = guinea pig, in vivo
smiles,measurement,setting,value
CNC(=O)Oc1ccc2c(c1)[C@]1(C)CCN(C)[C@@H]1N2C [physostigmine],blood cholinesterase inhibition,blood cholinesterase,approximately 30%
same,plasma half life,[1],40 to 50 min
